Test results as given in PubChem BioAssay (NCI).
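Cultured in 96-well plates, cells were exposed to test compound for 48 hours across five concentrations. TGI: total growth inhibition.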

Columns and labels:
Assay in all cases: NCI tumour cell line growth inhibition, 48 h
SK-MEL-5 melanoma = tested on: SK-MEL-5 melanoma
M14 melanoma = tested on: M14 melanoma
HT29 colon = tested on: HT29 colon
MDA-MB-435 = tested on: MDA-MB-435

| SMILES | TGI (SK-MEL-5 melanoma) [µM] | TGI (M14 melanoma) [µM] | TGI (HT29 colon) [µM] | TGI (MDA-MB-435) [µM] |
| --- | --- | --- | --- | --- |
| O=c1c2cc(I)ccc2nc(-c2cccs2)n1/N=C/c1ccccc1 | > 100 | > 100 | > 100 | > 100 |
| N/C(=N\S(=O)(=O)c1cc(Cl)c(Oc2ccc([N+](=O)[O-])cc2Cl)c(Cl)c1)Nc1ccc(Cl)cc1 | 31.3 | 36.4 | 54.4 | 33.6 |
| COc1cc(/C=N/NC2=NCCCCN2)ccc1O | > 100 | > 100 | > 100 | > 100 |
| O=c1oc2ccc([N+](=O)[O-])cc2cc1Br | > 100 | > 100 | > 100 | > 100 |
| CCO/C(Cc1ccc(Cl)cc1)=N/NC(N)=S | > 100 | > 100 | > 100 | > 100 |
| COC(=O)/C(C#N)=C(\N)c1c(C)c2ccccc2oc1=N | > 100 |  |  | > 100 |
| C#CC1NC(=O)C1N(CC)CC (centres undefined) | > 100 | > 100 | > 100 | > 100 |
| NC(=O)C(=CNC(=S)Nc1cccc(C(F)(F)F)c1)C(N)=O | > 100 | > 100 | > 100 | > 100 |
| CC1CN=C(Nc2ccc(F)c(Cl)c2)S1 (centres undefined) | > 100 | > 100 | > 100 | > 100 |
| O=C(C/C=C/c1ccccc1)c1ccccc1 | 40.8 | 32.2 | 65.5 | 42.5 |
| CC(=O)OCC1OC(n2nc(Cc3ccccc3)c(=S)[nH]c2=S)C(OC(C)=O)C(OC(C)=O)C1OC(C)=O (centres undefined) | > 100 | 38.1 | > 100 | 36.7 |
| O=P(O)(CN1CCN(CP(=O)(O)c2ccccc2)CCN(CP(=O)(O)c2ccccc2)CC1)c1ccccc1 | > 100 |  | > 100 | > 100 |
| O=[N+]([O-])c1cccc(N=Nc2c(O)ccc3ccccc23)c1 | > 100 | > 100 | > 100 | > 100 |
| Clc1c2ccccc2nc2c1[nH]c1ccccc12 | 21.3 | > 100 | 34.3 | > 100 |
| O=C(N/N=C/C=C/c1ccc([N+](=O)[O-])o1)c1ccc(C(=O)N/N=C/C=C/c2ccc([N+](=O)[O-])o2)cc1 | 99.7 | 49.7 | > 100 | > 73.8 |
| COc1cc(C2c3c(ccc4ccccc34)C(=O)C3CCC(=O)N32)cc(OC)c1O (centres undefined) |  | > 25 | > 25 | > 25 |
| O=C1CC2SC(COCc3ccccc3)(CCN2Cc2ccccc2)C1 (centres undefined) | 34.8 | > 100 | > 100 | > 100 |
| CCOC(=O)c1cc(C2CCN(Cc3ccccc3)C2=S)c(C(=O)C=[N+]=[N-])[nH]1 (centres undefined) | 34.5 | 48.7 | > 100 | > 100 |
| COC(=O)C1=NN2c3ccccc3CN([C@@H](C)c3ccccc3)C(=O)[C@@H]2[C@H]1c1ccccc1 | > 100 | > 100 | > 100 | > 100 |
| Cc1csc(NNC(=O)Nc2ccccc2)n1 | > 100 | > 100 | > 100 | > 100 |
| COc1cc2ccc1OCc1cccc(n1)COc1ccc(cc1OC)C=NCCNCCN=C2 | > 100 | > 100 | > 100 | > 100 |
| O=C1O/C(=C\c2ccc(O)cc2)C(c2ccc(O)c(Cl)c2)=C1Cl | 43.2 | > 100 | > 100 | 81.7 |
| CCCCc1c2c(c(C)c3c1C(=O)OC3)Oc1ccccc1O2 | > 26.2 | > 100 | > 40.9 | 1.59 |
| Cc1cc2nc(N3C(=O)/C(=C/c4ccc(N(C)C)cc4)N=C3c3ccccc3)sc2cc1C | 44.4 | 73.1 | 44.2 | 51 |
| CSc1c(C#N)c(S)[nH]c(=O)c1C#N | 98.9 | > 100 | > 100 | > 100 |
| CC1C(c2ccccc2O)c2cc3c(cc2OC1N1CCOCC1)OCO3 (centres undefined) | 62.3 | > 100 | 68.4 | 82.8 |
| CCOC(=O)C(CCc1ncnc2c1ncn2Cc1ccccc1)(CCc1ncnc2c1ncn2Cc1ccccc1)C(=O)OCC | > 100 | > 100 | > 100 | > 100 |

| SMILES | TGI (SK-MEL-5 melanoma) [µM] | TGI (M14 melanoma) [µM] | TGI (HT29 colon) [µM] | TGI (MDA-MB-435) [µM] |
| --- | --- | --- | --- | --- |
| S=C(N1CCN(c2ccccc2)CC1)N1CCN(c2ccccc2)CC1 | > 100 | > 100 | > 100 | > 100 |
| CCCCc1ccc(C#CC#Cc2ccc(CCCC)s2)s1 | > 100 | > 100 | > 100 | > 100 |
| O=C1C(S(=O)(=O)c2ccccc2)=C(CS(=O)(=O)c2ccccc2)[C@@H](OCc2ccccc2)[C@@H]1OCc1ccccc1 | 40.2 | 32.1 | 26.3 | 92.7 |
| Cc1ccc(N=C2C(c3ccccc3)=C(SC3=C(c4ccccc4)C(=Nc4ccc(C)cc4)c4ccccc43)c3ccccc32)cc1 | > 100 | > 100 | > 48.9 | > 100 |
| COC1=CC(=O)C2=C(C[C@@]3(C)C(=C2)C(CO)=CC[C@H]3O)C1=O | 32.2 | 44.2 | > 100 | 41.2 |
| CC1=NN(c2nc(N)nc(/C(C#N)=C\c3cccc([N+](=O)[O-])c3)n2)C(C)(C)C1 | > 42.6 | > 48.9 | > 100 | > 26 |
| N#Cc1c(O)c2ccccc2[nH]c1=O | > 100 | > 100 | > 100 | > 100 |
| O=c1c2ccccc2[nH]c2c(Cl)cc(Cl)c(N3CCCCC3)c12 | > 100 | 88.9 | 32.6 | 55.8 |
| Cc1ccc(N2C(N)=C(C#N)C(C#N)(C#N)C2c2ccccc2)cc1 (centres undefined) | 20.9 | 30.5 | 13.9 | 14.1 |
| C=CC1(C)OC2(CCN(C(=O)OCC)CC2)OC1C (centres undefined) | > 100 | > 100 | > 100 | > 100 |
| CC[C@@]1(CCC(=O)NCCc2c[nH]c3ccccc23)CCC(=O)N2CCc3c([nH]c4ccccc34)[C@H]21 | > 100 | > 100 |  | 47.1 |
| CCCCOC(=O)c1cc(C(=CCC[C@H]2CC[C@@]3(C)[C@@H](CC[C@@H]4[C@@H]3CC[C@]3(C)[C@@H](C(C)CCCC(C)C)CC[C@@H]43)C2)c2cc(Cl)c(O)c(C(=O)OCCCC)c2)cc(Cl)c1O (some centres undefined) | > 50 |  | > 50 | > 50 |
| CCCC(=O)NC(Nc1ccc(S(=O)(=O)Nc2ccc(OC)nn2)cc1)(C(F)(F)F)C(F)(F)F | > 100 | > 100 | > 100 | > 100 |
| S=C=NC1CCC(c2cc3ccccc3s2)(N2CCCCC2)CC1 (centres undefined) | 2.94 | 4.39 | 3.66 | 3.19 |
| CC1(C)C2CCC(O)(C2)C1N (centres undefined) | > 100 | > 100 | > 100 | > 100 |
| CCOC(=O)C(Cc1ccc(N(CCCl)CCCl)cc1)NC(=O)CCCN1C(=O)CN=C(c2ccccc2)c2cc(Cl)ccc21 (centres undefined) | 25.2 | 22.3 | > 100 | > 59.5 |
| COC1C(O)C(C)OC(OC2CCC3(C)C(CCC4C3C(O)CC3(C)C(C5=CC(=O)OC5)CCC43O)C2)C1O (centres undefined) | 0.501 | 1.02 | 2.23 | 1.24 |
| Cn1c(N=P(c2ccccc2)(c2ccccc2)c2ccccc2)c([N+](=O)[O-])c(=O)n(C)c1=O | > 100 | > 100 | > 100 | > 100 |
| C1CN2CCNCCN(CCN1)CC2 | > 100 | > 100 | > 100 | > 100 |
| COc1cc2c[n+](C)c3c(c2cc1OC)Cc1cc2c(cc1-3)OCO2 | > 100 | > 100 | > 100 | > 100 |
| Cc1c(F)c(NC(=O)CN(C)C)c2c(=O)cc(-c3ccc(NC(=O)CN(C)C)c(F)c3)oc2c1F | 30.6 | 31.7 | 33.8 | 26.5 |
| COc1ccc(/C=C/C(=O)c2ccc(OC(=O)/C=C/c3ccccc3)cc2)cc1 | > 70 | > 100 | 39.6 | > 100 |
| COC1CC(O[C@H]2CC[C@@]3(C)[C@@H](CC[C@]4(O)[C@@H]3CC[C@]3(C)[C@@H](C(C)=O)[C@H](OC(=O)CC(C)C)[C@@H](OC(=O)c5ccccc5)[C@@]34O)C2)OC(C)C1OC1CC(OC)C(OC2OC(C)C(O)C(OC)C2O)C(C)O1 (some centres undefined) | > 25 | > 25 | > 25 | > 25 |
| O=C1NC(=S)NC(=O)C1=C/C=C/c1ccc([N+](=O)[O-])cc1 | 42.5 | 30.8 | 58.7 | 28.3 |
| CCCNC(=O)N(C)C(=O)N1N=C(c2ccccc2)C1c1ccccc1 (centres undefined) | > 100 | > 100 |  | > 100 |
| CNC(=O)NS(=O)(=O)c1ccc(C)cc1 | > 100 | > 100 | > 100 |  |
